In general, IC50 refers to the concentration at which inhibition is half-maximal. Low readings indicate inhibition by little substance, high ones a need for much substance.

The record followed here is patent US12091392B2, “Compounds, compositions and methods” (Denali Therapeutics Inc., priority 2019, dated 2024).

For the assay, the system named is ATF4 Nano Luciferase reporter (ATF4 translation / ISR pathway activation). As to the kind of experiment: ATF4 Nano Luciferase reporter integrated stress response (ISR) assay in H4 ATF4-NLuc (clone 17) cells. To be noted: Homo sapiens, 0.5 h, compounds added for 30 minutes at 37° C., then 50 μm sodium arsenite for 6 additional hours, luminescence readout. Type of assay: cell-based. From the text:
Cellular stress leads to activation of the integrated stress response pathway through one of four eukaryotic initiation factor 2α kinases and halts global translation, while allowing for the translation of select transcripts like ATF4 (activating transcription factor 4) that are important for the response to cellular stress. During normal conditions, small open reading frames (ORFs) in the 5′ UTR of ATF4 occupy the ribosome and prevent translation of the coding sequence of ATF4. During stress conditions however, the ribosome scans past these upstream ORFs and preferentially begins translation at the coding sequence of ATF4. In this way, the translation, and thus protein level of ATF4 is a readout of ISR pathway activation. Thus, a fusion of the uORFs and the beginning of the coding sequence of ATF to a common cellular reporter like nano-luciferase allows for a sensitive and high-throughput readout of ISR pathway activity.
Certain compounds provided herein were tested in the following assay. The ATF4 Nano Luciferase reporter was constructed by fusing the human full length 5′ untranslated region (5′-UTR) and a small portion of the coding sequence of the ATF4 gene upstream of the Nano Luciferase (NLuc) coding sequence lacking it's start codon. Specifically, nucleotides +1 through +364 (relative to the transcriptional start site) of ATF4 transcript variant 2 (NCBI NM_182810.2) flanked 5′ by EcoRI and 3′ by BamHI restriction enzyme sites were synthesized and cloned into the EcoRI/BamHI cloning sites of pLVX-EF1a-IRES-Puro lentivirus vector (Clontech). Lentiviral particles were produced with Lenti-X single shots (VSV-G, Clontech) according to the manufacturer's instructions and used to transduce a human H4 neuroglioma cell line (ATCC HTB-148). H4 cells were selected with 1.25 μg/mL Puromycin, and clonal cell lines generated by limiting dilution. This cell line was utilized to generate an integrated stress response (ISR) assay to evaluate the activity of ISR pathway inhibitors via luminescence readout. The H4 ATF4-NLuc (clone 17) cell line was plated at a density of 15,000 or 2,500 cells in 96-well or 384-well respectively in DMEM+10% fetal bovine serum. 24-hours later test compounds diluted in dimethyl sulfoxide (DMSO) were added for 30 minutes at 37° C., followed by ISR pathway activation with […] sodium arsenite aqueous solution for 6 additional hours. Nano Glo luciferase reagent (N1150, Promega) was added according to manufacturer instructions and the luminescence signal (corresponding to the level of ATF4 translation and thus ISR pathway activation) was read with a standard plate reader with luminescence detection capabilities. In Table 2, the activity of certain compounds disclosed herein as tested in the assay above is provided.
(In general: In a reporter assay the amount or activity of a reporter protein is the signal.)
`CN(CCOC(F)(F)F)c1nnc(C23CC(NC(=O)COc4ccc(C(F)(F)F)cc4)(C2)C3)o1` [Example 5] gave an IC50 of 54 nM.
`O=C(COc1ccc(Cl)cc1)NC12CC(c3nnc(OCCOCC(F)(F)F)o3)(C1)C2` [Example 3] displayed an IC50 of 16 nM.
`O=C(COc1ccc(Br)cc1)NC12CC(c3nnc(OCCOCC(F)(F)F)o3)(C1)C2` [Example 7, 2-(4-bromophenoxy)-N-(3-(5-(2-(2,2,2-trifluoroethoxy)ethoxy)-1,3,4-oxadiazol-2-yl)bicyclo[1.1.1]pentan-1-yl)acetamide] registered an IC50 of 16 nM.
For `O=C(COc1ccc(C(F)(F)F)cc1)NC12CC(c3nnc(OCCOCC(F)(F)F)o3)(C1)C2` [Example 6, N-(3-(5-(2-(2,2,2-trifluoroethoxy)ethoxy)-1,3,4-oxadiazol-2-yl)bicyclo[1.1.1]pentan-1-yl)-2-(4-(trifluoromethyl)phenoxy)acetamide], half-maximal inhibition (IC50) was put at 21 nM.
As for `O=C(COc1ccc(C(F)(F)F)cc1)NC12CC(c3nnc(OCCOC(F)(F)F)o3)(C1)C2` [Example 2], the figure is 4.9 nM; as for `O=C(COc1ccc(Br)cc1)NC12CC(c3nnc(OCCOC(F)(F)F)o3)(C1)C2` [Example 8, 2-(4-bromophenoxy)-N-(3-(5-(2-(trifluoromethoxy)ethoxy)-1,3,4-oxadiazol-2-yl)bicyclo[1.1.1]pentan-1-yl)acetamide], 23 nM; as for `O=C(COc1ccc(C(F)(F)F)c(F)c1)NC12CC(c3nnc(OCCOCC(F)(F)F)o3)(C1)C2` [Example 9, 2-(3-fluoro-4-(trifluoromethyl)phenoxy)-N-(3-(5-(2-(2,2,2-trifluoroethoxy)ethoxy)-1,3,4-oxadiazol-2-yl)bicyclo[1.1.1]pentan-1-yl)acetamide], 6.1 nM.
As for `O=C(COc1ccc(C(F)(F)F)cc1)NC12CC(c3nnc(NCCOC(F)(F)F)o3)(C1)C2` [Example 4], half-maximal inhibition (IC50) required 36 nM. Compared with the last compound, the IC50 is about 5.9-fold higher.
`O=C(COc1ccc(Cl)cc1)NC12CC(c3nnc(OCCOC(F)(F)F)o3)(C1)C2` [Example 1]: the IC50 was 62 nM.
